In ChEMBL document CHEMBL1150136, “Limnazine, the first bacterial azine derivative from Bacillus sp. GW90a” (J Nat Prod, 2002):
Calls of active or inactive are those of the source.

What was measured:
Format in all cases: functional, organism-based
Escherichia coli = experiment: Antibacterial activity against Escherichia coli up to 100 ug/mL by agar diffusion test
Chlorella salina = experiment: Antialgal activity against Chlorella salina by agar diffusion test
Chlorella sorokiniana = experiment: Antialgal activity against Chlorella sorokiniana by agar diffusion test
Bacillus subtilis = experiment: Antibacterial activity against Bacillus subtilis up to 100 ug/mL by agar diffusion test
Chlorella vulgaris = experiment: Antialgal activity against Chlorella vulgaris up to 100 ug/mL by agar diffusion test
Rhizomucor miehei = experiment: Antifungal activity against Mucor miehei by agar diffusion test
Staphylococcus aureus = experiment: Antibacterial activity against Staphylococcus aureus by agar diffusion test

Measured: Activity

Cc1ccc2c(c1)/C(=N\N=C1/CC(C)(C)Oc3ccc(C)cc31)CC(C)(C)O2
inactive: all assays above
